For six molecules, IC50 results are on record in patent US20250236622A1, “BICYCLIC COMPOUNDS AS INHIBITORS OF WRN” (Incyte Corporation, priority 2023, published 2025).

pIC50: −log10 of the molar value. A value given as a limit tells only on which side of the number the result lay.

The term pIC50 denotes −log10 of the IC50, conventionally taken in molar units. High values mean a small IC50, low ones a large IC50.

In assay [1] the target is T1, WRN (Homo sapiens, UniProt Q14191).
T1 construct: A His-tagged construct of WRN (AA S2-S1235) was produced and used for the ATPase assay; made in house; host or cells: Sf9 insect cells (baculovirus, pFastBac1)
As to the kind of experiment: WRN ATPase Activity Assay (ADP-Glo). In kind it is biochemical. The following applies: 1-hr pre-incubation with enzyme; 100 μM ATP, 25 nM forked dsDNA, 1 nM WRN; geometric mean of at least 2 replicates. As for the experimental part:
Compounds of the Examples were tested for WRN ATPase activity. WRN ATPase activity catalyzes ATP hydrolysis to produce ADP and phosphate. DNA encoding the target protein, 6×HIS-TEV-WRN-517-945, was produced, cloned and transfected as detailed in Example D. The amount of ADP produced was measured using ADP-Glo™ Kinase Assay kit from Promega Corporation in a Greiner white regular volume 384 wells assay plate (Greiner #781075). Data was normalized to a standard curve generated using various ADP concentrations and the corresponding luminescent signal intensities at each concentration.
The assay conditions were optimized for enzyme concentration (WRN), substrate concentrations (ATP & dsDNA), and the linearity of the ATPase reaction, in the following assay buffer: 50 mM Tris-HCl, pH-7.5, 2 mM MgCl2, 50 mM NaCl, 1 mM EGTA, 0.01% P-20, 0.05% BSA, and 2 mM DTT prepared with nuclease free water.
A serial dilution (1:3 scheme) of the compounds were prepared in neat DMSO, with 100 nL of the compounds dispensed in the 384 wells assay plate. An 1-hr pre-incubation of the compounds with enzyme was included. A His-tagged construct of WRN (AA S2-S1235) was produced and used for the ATPase assay. Maximum inhibition control wells were set up with the addition of only assay buffer, and no inhibition control wells were set up with neat DMSO without test compounds. The reaction was initiated by addition of 5 μL substrate mix (200 μM ultrapure ATP, and 50 nM dsDNA prepared in assay buffer) and incubated at 25° C. for 35 min. A forked dsDNA oligomer substrate was prepared by annealing equal amounts of oligo GPat-1 ([BHQ2][…]) and oligo GPat-2 ([…][TAM]) and was used as dsDNA substrate for WRN ATPase assay. A typical ATPase reaction consists of 25 nM forked dsDNA, 100 μM ATP, and 1 nM WRN prepared in assay buffer. The WRN ATPase reaction was stopped by the addition of 5 μL of ADP-Glo Reagent from ADP-Glo™ Kinase Assay kit and incubated for 40 min to deplete the unreacted ATP. Afterwards, 5 μL of Kinase Detection Reagent from the ADP-Glo™ Kinase Assay kit was added and incubated for 1 hr for the development of luminescence signal.
Luminesce signals were measured on BMG PHERAstar FSX using luminescence protocol. Data analysis was carried out using Genedata software following % of control normalization. Fitting parameters include dose response IC50, Hill slope (n), maximum inhibition (S∞), and minimum inhibition (S0). The reported IC50 values for compounds in this invention are the geometric means of at least 2 independent replicates.
(In general: ADP-Glo turns the ADP formed in a reaction into a luminescent signal.)

Assay [2] addresses T1, WRN. In words: WRN Helicase Activity Assay (fluorescence DNA unwinding). In kind it is biochemical. The note with it: 1-hr pre-incubation with enzyme; 100 μM ATP, 25 nM forked dsDNA, 1 nM WRN; geometric mean of at least 2 replicates. As for the experimental part:
Compounds of the examples were tested for WRN helicase activity. DNA encoding the target protein, 6×HIS-TEV-WRN-517-945, was produced, cloned and transfected as detailed in Example D. To determine the inhibitory properties of the compounds, a 384 wells plate-based Helicase assay was set up to measure the extent of DNA unwinding (Helicase) activity of WRN. The WRN Helicase assay was designed to measure increase in fluorescence signal using a fluorescence based, donor-quencher paired forked dsDNA oligomer substrate (custom synthesis from Sigma-Aldrich) prepared by annealing equal amounts of oligo GPat-1 ([BHQ2][…]) and oligo GPat-2 ([…][TAM]). Continuous measurement of fluorescent signal was used to optimize the buffer conditions, concentration of enzyme (WRN), concentration of substrates (ATP & dsDNA), and the linearity of the Helicase reaction. All solutions were prepared in the following assay buffer: 50 mM Tris-HCl, pH-7.5, 2 mM MgCl2, 50 mM NaCl, 1 mM EGTA, 0.01% P-20, 0.05% BSA, and 2 mM DTT prepared with nuclease free water.
A serial dilution (1:3 scheme) of the compounds was prepared in neat DMSO and 100 nL of the compounds was dispensed in the Greiner black low volume (Greiner #784076) 384 wells assay plate. An 1-hr pre-incubation of the compounds with enzyme was included. A His-tagged construct of WRN (AA S2-S1235) was produced and used for the ATPase assay. Maximum inhibition control wells were set up with the addition of only assay buffer, and no inhibition control wells were set up with neat DMSO without test compounds. The reaction was initiated by addition of 5 μL substrate mix (200 μM ultrapure ATP, and 50 nM dsDNA prepared in assay buffer) and incubated at 25° C. for 35 min. A typical Helicase reaction consists of 25 nM forked dsDNA, 100 μM ATP, and 1 nM WRN prepared in assay buffer. The WRN Helicase reaction was quenched by the addition of 5 μL ‘STOP’ solution containing 100 mM EDTA (final EDTA concentration 33.33 mM) prepared in assay buffer. The plates were read on BMG PHERAstar FSX using 540/590 module to measure an increase of fluorescence. Data analysis was carried out using the Genedata software following % of control normalization. Fitting parameters include dose response IC50, Hill slope (n), maximum inhibition (S∞), and minimum inhibition (S0). The reported IC50 values for compounds in this invention are the geometric means of at least 2 independent replicates.

T1 sequence (Q14191 2-1235): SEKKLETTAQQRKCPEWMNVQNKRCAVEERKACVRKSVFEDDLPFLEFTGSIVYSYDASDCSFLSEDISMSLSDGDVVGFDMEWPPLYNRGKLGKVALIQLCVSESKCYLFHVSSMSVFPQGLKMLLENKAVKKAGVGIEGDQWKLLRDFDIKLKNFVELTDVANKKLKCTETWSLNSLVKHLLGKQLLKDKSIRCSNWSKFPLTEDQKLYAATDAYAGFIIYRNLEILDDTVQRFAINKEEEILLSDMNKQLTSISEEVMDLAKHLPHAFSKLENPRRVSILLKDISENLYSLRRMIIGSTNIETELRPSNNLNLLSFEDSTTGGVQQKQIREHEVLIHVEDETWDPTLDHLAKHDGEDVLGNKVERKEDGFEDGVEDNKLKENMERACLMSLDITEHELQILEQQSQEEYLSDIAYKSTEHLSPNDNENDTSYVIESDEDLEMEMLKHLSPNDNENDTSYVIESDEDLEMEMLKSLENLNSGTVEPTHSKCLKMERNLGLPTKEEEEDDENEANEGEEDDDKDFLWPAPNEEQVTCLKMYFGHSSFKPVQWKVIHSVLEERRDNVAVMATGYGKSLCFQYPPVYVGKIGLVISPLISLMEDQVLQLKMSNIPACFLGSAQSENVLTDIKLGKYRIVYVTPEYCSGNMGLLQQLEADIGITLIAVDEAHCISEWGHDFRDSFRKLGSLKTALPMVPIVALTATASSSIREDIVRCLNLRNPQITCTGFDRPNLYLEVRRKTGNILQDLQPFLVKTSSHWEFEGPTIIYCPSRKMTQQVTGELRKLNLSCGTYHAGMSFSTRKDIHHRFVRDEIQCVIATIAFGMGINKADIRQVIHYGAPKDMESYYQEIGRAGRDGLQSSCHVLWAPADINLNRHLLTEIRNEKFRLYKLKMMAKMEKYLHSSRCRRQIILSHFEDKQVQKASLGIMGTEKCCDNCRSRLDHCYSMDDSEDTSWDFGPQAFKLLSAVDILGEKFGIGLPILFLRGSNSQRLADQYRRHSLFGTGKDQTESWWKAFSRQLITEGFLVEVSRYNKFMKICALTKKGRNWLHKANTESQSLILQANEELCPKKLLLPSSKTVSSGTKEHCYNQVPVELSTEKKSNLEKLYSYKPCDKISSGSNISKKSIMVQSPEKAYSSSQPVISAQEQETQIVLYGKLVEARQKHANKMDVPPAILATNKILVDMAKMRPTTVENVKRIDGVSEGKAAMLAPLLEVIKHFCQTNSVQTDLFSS

As to `C=CC(=O)Nc1ccccc1-c1c(CC)nc2n(CC(=O)Nc3ccc(C(F)(F)F)cc3)c(C)nn2c1=O` [Example 1, N-(2-(5-Ethyl-2-methyl-7-oxo-3-(2-oxo-2-((4-(trifluoromethyl)phenyl)amino)ethyl)-3,7-dihydro-[1,2,4]triazolo[1,5-a]pyrimidin-6-yl)phenyl)acrylamide], the pIC50 at WRN [1] and against WRN [2] was above 7.00 throughout.
As to `C=CC(=O)Nc1ccccc1-c1c(CC)nc2n(CC(=O)Nc3ccc(C(F)(F)F)cc3)c(C3CC3)nn2c1=O` [Example 2, N-(2-(2-Cyclopropyl-5-ethyl-7-oxo-3-(2-oxo-2-((4-(trifluoromethyl)phenyl)amino)ethyl)-3,7-dihydro-[1,2,4]triazolo[1,5-a]pyrimidin-6-yl)phenyl)acrylamide], the pIC50 on WRN [1] and against WRN [2] was above 7.00 each time.
Regarding `C=CC(=O)Nc1ccccc1-c1c(CC)nc2n(CC(=O)Nc3ccc(C(F)(F)F)cc3)c(C3CCC3)nn2c1=O` [Example 3, N-(2-(2-Cyclobutyl-5-ethyl-7-oxo-3-(2-oxo-2-((4-(trifluoromethyl)phenyl)amino)ethyl)-3,7-dihydro-[1,2,4]triazolo[1,5-a]pyrimidin-6-yl)phenyl)acrylamide], the pIC50 against WRN [1] and at WRN [2] was 6.30 to 7.00 throughout.
Turning to `C=CC(=O)Nc1ccccc1-c1c(CC)nc2n(CC(=O)Nc3ccc(C(F)(F)F)cc3)c(C3CCCCC3)nn2c1=O` [Example 4, N-(2-(2-Cyclohexyl-5-ethyl-7-oxo-3-(2-oxo-2-((4-(trifluoromethyl)phenyl)amino)ethyl)-3,7-dihydro-[1,2,4]triazolo[1,5-a]pyrimidin-6-yl)phenyl)acrylamide], the pIC50 is 5.30 to 6.00 at WRN [1] and 4.70 to 5.30 against WRN [2].
In the case of `C=CC(=O)Nc1ccccc1-c1c(CC)nc2n(CC(=O)Nc3ccc(C(F)(F)F)cc3)c(-c3cccs3)nn2c1=O` [Example 5, N-(2-(5-ethyl-7-oxo-3-(2-oxo-2-((4-(trifluoromethyl)phenyl)amino)ethyl)-2-(thiophen-2-yl)-3,7-dihydro-[1,2,4]triazolo[1,5-a]pyrimidin-6-yl)phenyl)acrylamide], the pIC50 against WRN [1] and against WRN [2] was 6.30 to 7.00 each time.
Consider `C=CC(=O)Nc1ccccc1-c1c(CC)nc2n(CC(=O)Nc3ccc(C(F)(F)F)cc3)c(C3CCNCC3)nn2c1=O` [Example 6, N-(2-(5-Ethyl-7-oxo-3-(2-oxo-2-((4-(trifluoromethyl)phenyl)amino)ethyl)-2-(piperidin-4-yl)-3,7-dihydro-[1,2,4]triazolo[1,5-a]pyrimidin-6-yl)phenyl)acrylamide], for which the negative logarithm of the IC50 (pIC50) at WRN [1] and against WRN [2] was 5.30 to 6.00 throughout.
